This is an account of results in US9169254B2, “Spiroimidazolone derivative” (Chugai Seiyaku Kabushiki Kaisha, priority 2009, dated 2015).

In this assay the target is T1, human PTH1 receptor (Homo sapiens, UniProt Q03431).
T1 sequence (Q03431 27-593): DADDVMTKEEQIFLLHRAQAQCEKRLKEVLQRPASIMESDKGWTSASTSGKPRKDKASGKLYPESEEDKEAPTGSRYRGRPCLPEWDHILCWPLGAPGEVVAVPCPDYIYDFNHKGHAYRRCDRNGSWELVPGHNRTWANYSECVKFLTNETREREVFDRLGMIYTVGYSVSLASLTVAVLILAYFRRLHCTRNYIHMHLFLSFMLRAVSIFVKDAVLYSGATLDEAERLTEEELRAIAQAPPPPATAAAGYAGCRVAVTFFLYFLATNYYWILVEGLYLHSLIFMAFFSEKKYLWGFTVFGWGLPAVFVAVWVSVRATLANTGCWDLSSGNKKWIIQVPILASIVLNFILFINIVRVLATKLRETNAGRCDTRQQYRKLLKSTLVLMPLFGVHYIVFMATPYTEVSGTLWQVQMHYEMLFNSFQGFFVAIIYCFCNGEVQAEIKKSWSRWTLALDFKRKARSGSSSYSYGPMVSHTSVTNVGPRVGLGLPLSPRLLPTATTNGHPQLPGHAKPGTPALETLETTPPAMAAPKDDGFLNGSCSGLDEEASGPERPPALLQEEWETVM
The experiment in a line: In vitro cAMP signal activity in HKRK-B7 cells (LLC-PK1 cells overexpressing the human PTH1 receptor). Format: cell-based. The conditions noted are these: HKRK-B7 cells; compound at 1×10^−3 M; cAMP produced as percentage of that produced by hPTH(1-34) at 100 nM.
Take `CCCCCCCCCCCC1=NC2(CCN([S@TB17](=O)(=O)CCc3c(C)cc(N(C)C(N)=O)cc3C)CC2)C(=O)N1` [Compound 1141, 1-{3,5-dimethyl-4-[2-(4-oxo-2-undecyl-1,3,8-triaza-spiro[4.5]dec-1-ene-8-sulfonyl)-ethyl]-phenyl}-1-methyl-urea]: the “cAMP production activity (%)” value is on record as 83%.

In the case of `CCCCCCCCC1=NC2(CCN([S@TB17](=O)(=O)CCc3c(C)cc(N(C)C(N)=O)cc3C)CC2)C(=O)N1` [Compound 1142, 1-{3,5-dimethyl-4-[2-(2-octyl-4-oxo-1,3,8-triaza-spiro[4.5]dec-1-ene-8-sulfonyl)-ethyl]-phenyl}-1-methyl-urea], the “cAMP production activity (%)” value is 68%.

With `CCCCCC[C@@H]1CCC[C@H](C2=NC3(CCN(S(=O)(=O)CCc4c(C)cc(N(C)C(N)=O)cc4C)CC3)C(=O)N2)C1` [Compound 1143, 1-(4-{2-[2-((1S,3R)-3-Hexyl-cyclohexyl)-4-oxo-1,3,8-triaza-spiro[4.5]dec-1-ene-8-sulfonyl]-ethyl}-3,5-dimethyl-phenyl)-1-methyl-urea], the “cAMP production activity (%)” value stood at 78%.

Take `Cc1cc(N(C)C(N)=O)cc(C)c1CC[S@TB3](=O)(=O)N1CCC2(CC1)N=C(c1cccc(CCC(C)C)c1)NC2=O` [Compound 1144, 1-[3,5-dimethyl-4-(2-{2-[3-(3-methyl-butyl)-phenyl]-4-oxo-1,3,8-triaza-spiro[4.5]dec-1-ene-8-sulfonyl}-ethyl)-phenyl]-1-methyl-urea]: the “cAMP production activity (%)” value stood at 124%.

In the case of `CCCC[C@@H]1CCC[C@H](C2=NC3(CCN(S(=O)(=O)CCc4c(C)cc(N(C)C(N)=O)cc4C)CC3)C(=O)N2)C1` [Compound 1145, 1-(4-{2-[2-((1S,3R)-3-butyl-cyclohexyl)-4-oxo-1,3,8-triaza-spiro[4.5]dec-1-ene-8-sulfonyl]-ethyl}-3,5-dimethyl-phenyl)-1-methyl-urea], the “cAMP production activity (%)” value came to 102%.

`Cc1cc(N(C)C(N)=O)cc(C)c1CCS(=O)(=O)N1CCC2(CC1)N=C([C@H]1CCC[C@@H](CCC(C)C)C1)NC2=O` [Compound 1146, 1-[3,5-dimethyl-4-(2-{2-[(1S,3S)-3-(3-methyl-butyl)-cyclohexyl]-4-oxo-1,3,8-triaza-spiro[4.5]dec-1-ene-8-sulfonyl}-ethyl)-phenyl]-1-methyl-urea]: the “cAMP production activity (%)” value stood at 107%.

For the molecule `Cc1cc(N(C)C(N)=O)cc(C)c1CC[S@TB4](=O)(=O)N1CCC2(CC1)N=C(CCC(F)(F)CCCCCC(F)(F)F)NC2=O` [Compound 1147, 1-(3,5-dimethyl-4-{2-[4-oxo-2-(3,3,9,9,9-pentafluoro-nonyl)-1,3,8-triaza-spiro[4.5]dec-1-ene-8-sulfonyl]-ethyl}-phenyl)-1-methyl-urea], the “cAMP production activity (%)” value is listed as 112%.

Consider `[2H]C([2H])([2H])C([2H])([2H])C1=CC[C@H](C2=NC3(CCN([S@TB18](=O)(=O)CCc4c(C)cc(N(C)C(N)=O)cc4C)CC3)C(=O)N2)CC1` [Compound 1149, 1-(4-{2-[2-(4-[1,1,2,2,2-^2H5]ethyl-cyclohex-3-enyl)-4-oxo-1,3,8-triaza-spiro[4.5]dec-1-ene-8-sulfonyl]-ethyl}-3,5-dimethyl-phenyl)-1-methyl-urea], for which the “cAMP production activity (%)” value turned out to be 98%.

For `Cc1cc(N(C)C(N)=O)cc(C)c1CCS(=O)(=O)N1CCC2(CC1)N=C(c1ccc(Cl)c(C(F)(F)F)c1)NC2=O` [Compound 1150, 1-(4-{2-[2-(4-Chloro-3-trifluoromethyl-phenyl)-4-oxo-1,3,8-triaza-spiro[4.5]dec-1-ene-8-sulfonyl]-ethyl}-3,5-dimethyl-phenyl)-1-methyl-urea], the “cAMP production activity (%)” value amounted to 107%.

Turning to `Cc1cc(N(C)C(N)=O)cc(C)c1CCS(=O)(=O)N1CCC2(CC1)N=C(C(F)CCCCCCCC(F)(F)F)NC2=O` (stereo not shown) [Compound 1151, 1-(3,5-Dimethyl-4-{2-[4-oxo-2-(1,9,9,9-tetrafluoro-nonyl)-1,3,8-triaza-spiro[4.5]dec-1-ene-8-sulfonyl]-ethyl}-phenyl)-1-methyl-urea], the “cAMP production activity (%)” value is recorded as 105%.

Regarding `CCCc1ccc(-c2cccc(C3=NC4(CCN(S(=O)(=O)CCc5c(C)cc(N(C)C(N)=O)cc5C)CC4)C(=O)N3)c2)cc1` [Compound 1152, 1-(3,5-Dimethyl-4-{2-[4-oxo-2-(4′-propyl-biphenyl-3-yl)-1,3,8-triaza-spiro[4.5]dec-1-ene-8-sulfonyl]-ethyl}-phenyl)-1-methyl-urea], the “cAMP production activity (%)” value was 0.8%.

For the molecule `Cc1cc(N(C)C(N)=O)cc(C)c1CC[S@TB4](=O)(=O)N1CCC2(CC1)N=C(CCCCCCCCCCCF)NC2=O` [Compound 1153, 1-(4-{2-[2-(11-fluoro-undecyl)-4-oxo-1,3,8-triaza-spiro[4.5]dec-1-ene-8-sulfonyl]-ethyl}-3,5-dimethyl-phenyl)-1-methyl-urea], the “cAMP production activity (%)” value is 106%.

For the molecule `CCSCCCCCCC1=NC2(CCN([S@TB18](=O)(=O)CCc3c(C)cc(N(C)C(N)=O)cc3C)CC2)C(=O)N1` [Compound 1154, 1-(4-{2-[2-(6-ethylsulfanyl-hexyl)-4-oxo-1,3,8-triaza-spiro[4.5]dec-1-ene-8-sulfonyl]-ethyl}-3,5-dimethyl-phenyl)-1-methyl-urea], the “cAMP production activity (%)” value turned out to be 115%.

Consider `Cc1cc(N(C)C(N)=O)cc(C)c1CC[S@TB4](=O)(=O)N1CCC2(CC1)N=C(c1cccc(-c3cccc(-c4ccccc4)c3)c1)NC2=O` [Compound 1155, 1-{3,5-dimethyl-4-[2-(4-oxo-2-[1,1′;3′,1″]terphenyl-3-yl-1,3,8-triaza-spiro[4.5]dec-1-ene-8-sulfonyl)-ethyl]-phenyl}-1-methyl-urea], for which the “cAMP production activity (%)” value was found to be 83%.

Regarding `Cc1cc(N(C)C(N)=O)cc(C)c1CC[S@TB4](=O)(=O)N1CCC2(CC1)N=C(CCCCCCCCCCC(F)F)NC2=O` [Compound 1156, 1-(4-{2-[2-(11,11-difluoro-undecyl)-4-oxo-1,3,8-triaza-spiro[4.5]dec-1-ene-8-sulfonyl]-ethyl}-3,5-dimethyl-phenyl)-1-methyl-urea], the “cAMP production activity (%)” value stood at 77%.

In the case of `Cc1cc(N(C)C(N)=O)cc(C)c1/C=C/S(=O)(=O)N1CCC2(CC1)N=C(c1cccc(-c3cccc(-c4ccccc4)c3)c1)NC2=O` [Compound 1157, 1-{3,5-Dimethyl-4-[(E)-2-(4-oxo-2-[1,1′;3′,1″]terphenyl-3-yl-1,3,8-triaza-spiro[4.5]dec-1-ene-8-sulfonyl)-vinyl]-phenyl}-1-methyl-urea], the “cAMP production activity (%)” value is 44%.

Consider `Cc1cc(C(=O)N2CCC(O)CC2)cc(C)c1/C=C/S(=O)(=O)N1CCC2(CC1)N=C(c1cccc(OCCCC(F)(F)C(F)(F)F)c1)NC2=O` [Compound 1158, 8-{(E)-2-[4-(4-Hydroxy-piperidine-1-carbonyl)-2,6-dimethyl-phenyl]-ethenesulfonyl}-2-[3-(4,4,5,5,5-pentafluoro-pentyloxy)-phenyl]-1,3,8-triaza-spiro[4.5]dec-1-en-4-one], for which the “cAMP production activity (%)” value was found to be 103%.

`Cc1cc(C(=O)N2CCC(O)CC2)cc(C)c1/C=C/[S@TB4](=O)(=O)N1CCC2(CC1)N=C(c1ccc(F)c(OC(F)(F)F)c1)NC2=O` [Compound 1159, 2-(4-fluoro-3-trifluoromethoxy-phenyl)-8-{(E)-2-[4-(4-hydroxy-piperidine-1-carbonyl)-2,6-dimethyl-phenyl]-ethenesulfonyl}-1,3,8-triaza-spiro[4.5]dec-1-en-4-one]: the “cAMP production activity (%)” value is 87%.

Take `Cc1cc(C(=O)N2CCC(O)CC2)cc(C)c1/C=C/[S@TB4](=O)(=O)N1CCC2(CC1)N=C(c1ccc3c(c1)OC(F)(F)O3)NC2=O` [Compound 1160, 2-(2,2-difluoro-benzo[1,3]dioxol-5-yl)-8-{(E)-2-[4-(4-hydroxy-piperidine-1-carbonyl)-2,6-dimethyl-phenyl]-ethenesulfonyl}-1,3,8-triaza-spiro[4.5]dec-1-en-4-one]: the “cAMP production activity (%)” value is listed as 84%.

Regarding `Cc1cc(C(=O)N2CCC(CO)CC2)cc(C)c1/C=C/S(=O)(=O)N1CCC2(CC1)N=C(c1ccc(F)c(OC(F)(F)F)c1)NC2=O` [Compound 1161, 2-(4-Fluoro-3-trifluoromethoxy-phenyl)-8-{(E)-2-[4-(4-hydroxymethyl-piperidine-1-carbonyl)-2,6-dimethyl-phenyl]-ethenesulfonyl}-1,3,8-triaza-spiro[4.5]dec-1-en-4-one], the “cAMP production activity (%)” value is 84%.

As for `Cc1cc(C(=O)N2CCC(CO)CC2)cc(C)c1/C=C/[S@TB4](=O)(=O)N1CCC2(CC1)N=C(c1ccc(F)c(C(F)(F)F)c1)NC2=O` [Compound 1162, 2-(4-fluoro-3-trifluoromethyl-phenyl)-8-{(E)-2-[4-(4-hydroxymethyl-piperidine-1-carbonyl)-2,6-dimethyl-phenyl]-ethenesulfonyl}-1,3,8-triaza-spiro[4.5]dec-1-en-4-one], the “cAMP production activity (%)” value came out at 112%.

On to `Cc1cc(C(=O)N2CCC(C)(O)CC2)cc(C)c1/C=C/S(=O)(=O)N1CCC2(CC1)N=C(c1ccc3c(c1)OC(F)(F)O3)NC2=O` [Compound 1163, 2-(2,2-Difluoro-benzo[1,3]dioxol-5-yl)-8-{(E)-2-[4-(4-hydroxy-4-methyl-piperidine-1-carbonyl)-2,6-dimethyl-phenyl]-ethenesulfonyl}-1,3,8-triaza-spiro[4.5]dec-1-en-4-one], for which the “cAMP production activity (%)” value came to 101%.
